From ChEMBL document CHEMBL1140260, “Synthesis and SAR of diazepine and thiazepine TACE and MMP inhibitors” (Bioorg Med Chem Lett, 2005)

Tests used:
[1] = biological target: Disintegrin and metalloproteinase domain-containing protein 17 (Homo sapiens, UniProt P78536); assay: Inhibitory concentration against TNF-alpha converting enzyme at 1 uM
Collagenase 3 = Collagenase 3 (Homo sapiens, UniProt P45452)
Description: Inhibitory concentration against Matrix metalloprotease-13 at 1 uM

THP-1 [2] = assay: Percent inhibition against LPS stimulated THP-1 cell assay at 3 uM; assay type: functional; conditions: Homo sapiens
[3] = biological target: T1, Interstitial collagenase (Homo sapiens) (UniProt P03956); assay: Percent inhibition against matrix metalloprotease-1 at 1 uM
T1 sequence (whole entry): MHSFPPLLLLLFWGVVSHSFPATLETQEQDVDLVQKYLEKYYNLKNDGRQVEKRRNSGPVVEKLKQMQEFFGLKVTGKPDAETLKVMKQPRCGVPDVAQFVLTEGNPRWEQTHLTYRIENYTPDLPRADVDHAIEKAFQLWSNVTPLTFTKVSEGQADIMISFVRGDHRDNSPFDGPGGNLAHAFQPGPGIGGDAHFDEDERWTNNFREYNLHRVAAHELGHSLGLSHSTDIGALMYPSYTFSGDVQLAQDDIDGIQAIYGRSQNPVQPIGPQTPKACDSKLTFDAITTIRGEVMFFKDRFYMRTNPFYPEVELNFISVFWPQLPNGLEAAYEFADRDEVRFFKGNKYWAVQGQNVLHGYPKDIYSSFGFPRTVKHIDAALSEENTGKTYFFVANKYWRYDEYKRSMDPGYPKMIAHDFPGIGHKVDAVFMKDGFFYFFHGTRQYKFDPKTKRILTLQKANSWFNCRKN

THP-1 [4] = assay: Percent inhibition against LPS stimulated THP-1 cellular assay at 3 uM; assay type: functional; conditions: Homo sapiens
Mus musculus [5] = assay: Percent inhibition ofTNF-alpha release 1 hr after oral dosing at 50 mpk; assay type: functional
Interstitial collagenase = biological target: T2, Interstitial collagenase (Homo sapiens, UniProt P03956); assay: (§1) Inhibitory concentration against matrix metalloprotease-1 at 1 uM
T2 sequence (P03956 whole entry): T1 sequence (whole entry)

Mus musculus [6] = assay: Percent inhibition ofTNF-alpha release 6 hr after oral dosing at 50 mpk; assay type: functional
Mus musculus [7] = assay: Half life of compound in mice after i.p. administration at 10 mg/kg; assay type: functional, organism-based; parameters: dose 10 mg/kg
Mus musculus [8] = assay: Half life of compound in mice after i.v. administration at 5 mg/kg; assay type: functional, organism-based; parameters: dose 5 mg/kg
Mus musculus [9] = assay: Percent reduction induced by compound in the mouse collagen induced arthritis model after 35 days of peroral dosing at 20 mpk, twice daily; assay type: functional
Mus musculus [10] = species: Mus musculus; assay: Plasma clearance of compound in mice plasma; assay type: functional, organism-based
[11] = Volume of distribution of compound in mice; assay type: ADME, organism-based; conditions: mouse, in vivo
Mus musculus [12] = assay: Oral bioavailability of compound in mice; assay type: functional, organism-based
Mus musculus [13] = assay: Half life of compound in mice after p.o. administration at 50 mg/kg
Mus musculus [14] = assay: Percent inhibition ofTNF-alpha release 1 hr after oral dosing at 25 mpk; assay type: functional
THP-1 [15] = assay: Percent inhibition against LPS stimulated THP-1 cellular assay at 1 uM; assay type: functional; conditions: Homo sapiens
[16] = biological target: T1, Interstitial collagenase (Homo sapiens); assay: as §1

Chain of Disintegrin and metalloproteinase domain-containing protein 17 (P78536 whole entry, the tested form may be a part): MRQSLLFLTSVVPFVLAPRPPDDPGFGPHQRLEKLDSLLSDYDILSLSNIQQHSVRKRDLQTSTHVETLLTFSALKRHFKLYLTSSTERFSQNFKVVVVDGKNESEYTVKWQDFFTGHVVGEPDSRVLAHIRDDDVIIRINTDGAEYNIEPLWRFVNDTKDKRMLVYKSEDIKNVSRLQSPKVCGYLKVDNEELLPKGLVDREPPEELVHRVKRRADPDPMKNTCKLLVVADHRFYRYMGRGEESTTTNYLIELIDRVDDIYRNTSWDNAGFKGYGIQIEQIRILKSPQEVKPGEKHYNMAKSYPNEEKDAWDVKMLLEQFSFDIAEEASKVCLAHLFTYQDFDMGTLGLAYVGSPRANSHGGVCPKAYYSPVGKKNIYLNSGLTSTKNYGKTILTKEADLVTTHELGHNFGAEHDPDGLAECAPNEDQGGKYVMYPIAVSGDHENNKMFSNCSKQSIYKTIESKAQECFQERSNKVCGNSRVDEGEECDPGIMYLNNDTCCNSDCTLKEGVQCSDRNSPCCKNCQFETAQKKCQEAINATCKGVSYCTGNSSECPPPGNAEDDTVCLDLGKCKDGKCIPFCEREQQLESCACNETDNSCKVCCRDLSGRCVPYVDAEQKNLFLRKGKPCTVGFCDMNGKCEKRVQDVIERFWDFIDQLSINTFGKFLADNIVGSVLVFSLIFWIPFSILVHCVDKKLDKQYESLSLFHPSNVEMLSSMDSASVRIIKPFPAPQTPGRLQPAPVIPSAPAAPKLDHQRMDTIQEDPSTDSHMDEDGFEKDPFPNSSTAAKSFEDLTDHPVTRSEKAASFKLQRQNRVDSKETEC

| SMILES | IC50 [1] [nM] | IC50 (Collagenase 3) [nM] | inhibition at 3 µM (THP-1 [4]) [%] | inhibition in vivo at 50 mg/kg (Mus musculus [5]) [%] | IC50 (Interstitial collagenase) [nM] | other results |
| --- | --- | --- | --- | --- | --- | --- |
| CC#CCOc1ccc(S(=O)(=O)N2CCCN(C(=O)OC(C)(C)C)CC2C(=O)NO)cc1 (stereo not drawn) | 35 | 363 | – | – | – | inhibition at 3 µM (THP-1 [2]): 13%; inhibition [3]: 26% |
| CC#CCOc1ccc(S(=O)(=O)N2CCS(=O)(=O)CCC2C(=O)NO)cc1 (stereo not drawn) | 19 | 8 | 92 | 94 | 114 | – |
| CC#CCOc1ccc(S(=O)(=O)N2CCCN(C(=O)c3cccs3)CC2C(=O)NO)cc1 (stereo not drawn) | 10 | 142 | 41 | – | – | – |
| CC#CCOc1ccc(S(=O)(=O)N2CCN(C)CCC2C(=O)NO)cc1 (stereo not drawn) | – | – | – | 32 | – | inhibition in vivo at 50 mg/kg (Mus musculus [6]): 39% |
| CC#CCOc1ccc(S(=O)(=O)N2CCNCCC2C(=O)NO)cc1 (stereo not drawn) | – | 32 | – | 97 | – | inhibition in vivo at 50 mg/kg (Mus musculus [6]): 62%; T1/2 (Mus musculus [7]): 2.64 h; T1/2 (Mus musculus [8]): 1.43 h; Reduction (Mus musculus [9]): 56%; CL (mL.min-1.kg-1) (Mus musculus [10]): 64.3; Vd [11]: 2.49 L/kg; bioavailability (Mus musculus [12]): 18%; T1/2 (Mus musculus [13]): 0.86 h |
| CC#CCOc1ccc(S(=O)(=O)N2CCN(C(=O)COC)CCC2C(=O)NO)cc1 (stereo not drawn) | 15 | 31 | 79 | – | 277 | – |
| CC#CCOc1ccc(S(=O)(=O)N2CCCN(S(=O)(=O)c3ccccc3)CC2C(=O)NO)cc1 (stereo not drawn) | 68 | 88 | 62 | – | – | inhibition [3]: 39%; inhibition in vivo at 25 mg/kg (Mus musculus [14]): 46% |
| CC#CCOc1ccc(S(=O)(=O)N2CCCSCC2C(=O)NO)cc1 (stereo not drawn) | 20 | 36 | 80 | 24 | 408 | – |
| CC#CCOc1ccc(S(=O)(=O)N2CCCNCC2C(=O)NO)cc1 (stereo not drawn) | 11 | 225 | 43 | – | 576 | inhibition in vivo at 25 mg/kg (Mus musculus [14]): 4% |
| CC#CCOc1ccc(S(=O)(=O)N2CCCN(C(=O)CCCN(C)C)CC2C(=O)NO)cc1 (stereo not drawn) | 75 | 395 | 33 | – | – | inhibition [3]: 19% |
| CC#CCOc1ccc(S(=O)(=O)N2CCN(CC)CCC2C(=O)NO)cc1 (stereo not drawn) | 37 | 17 | – | – | 285 | inhibition at 1 µM (THP-1 [15]): 57% |
| CC#CCOc1ccc(S(=O)(=O)N2CCCN(C(C)=O)CC2C(=O)NO)cc1 (stereo not drawn) | 4 | 305 | 74 | – | – | inhibition in vivo at 25 mg/kg (Mus musculus [14]): 10% |
| CC#CCOc1ccc(S(=O)(=O)N2CCCN(C(=O)NCCCCCC)CC2C(=O)NO)cc1 (stereo not drawn) | 14 | 307 | 36 | – | – | inhibition [3]: 34% |
| CC#CCOc1ccc(S(=O)(=O)N2CCN(C(=O)C(C)C)CCC2C(=O)NO)cc1 (stereo not drawn) | 23 | 9 | 95 | – | 142 | – |
| CC#CCOc1ccc(S(=O)(=O)N2CCN(Cc3ccccc3)CCC2C(=O)NO)cc1 (stereo not drawn) | – | – | – | 17 | – | inhibition in vivo at 50 mg/kg (Mus musculus [6]): 0% |
| CC#CCOc1ccc(S(=O)(=O)N2CCN(C(=O)OC(C)(C)C)CCC2C(=O)NO)cc1 (stereo not drawn) | – | – | – | 88 | – | inhibition in vivo at 50 mg/kg (Mus musculus [6]): 43% |
| CC#CCOc1ccc(S(=O)(=O)N2CCCN(S(C)(=O)=O)CC2C(=O)NO)cc1 (stereo not drawn) | 5 | 128 | 71 | – | – | inhibition [3]: 40%; inhibition in vivo at 25 mg/kg (Mus musculus [14]): 35% |
| CC#CCOc1ccc(S(=O)(=O)N2CCN(C(=O)c3ccccc3)CCC2C(=O)NO)cc1 (stereo not drawn) | – | – | – | 35 | – | inhibition in vivo at 50 mg/kg (Mus musculus [6]): 0% |
| CC#CCOc1ccc(S(=O)(=O)N2CCCN(C(=O)CN)CC2C(=O)NO)cc1 (stereo not drawn) | 12 | 1060 | 62 | – | 3030 | – |
| CC#CCOc1ccc(S(=O)(=O)N2CCCN(C)CC2C(=O)NO)cc1 (stereo not drawn) | 24 | 180 | 42 | – | – | inhibition [16]: 36% |
| CC#CCOc1ccc(S(=O)(=O)N2CCCS(=O)(=O)CC2C(=O)NO)cc1 (stereo not drawn) | 28 | 311 | – | 77 | 334 | – |
| CC#CCOc1ccc(S(=O)(=O)N2CCCN(S(=O)(=O)CCC)CC2C(=O)NO)cc1 (stereo not drawn) | 30 | 140 | 74 | – | 1140 | inhibition in vivo at 25 mg/kg (Mus musculus [14]): 0% |
| CC#CCOc1ccc(S(=O)(=O)N2CCSCCC2C(=O)NO)cc1 (stereo not drawn) | – | 11 | – | 70 | 171 | inhibition in vivo at 50 mg/kg (Mus musculus [6]): 41% |
| CC#CCOc1ccc(S(=O)(=O)N2CCCN(Cc3ccccc3)CC2C(=O)NO)cc1 (stereo not drawn) | 61 | 52 | 41 | – | 212 | – |
| CC#CCOc1ccc(S(=O)(=O)N2CCN(C(=O)CC)CCC2C(=O)NO)cc1 (stereo not drawn) | 19 | 20 | – | – | 207 | inhibition at 1 µM (THP-1 [15]): 63% |
| CC#CCOc1ccc(S(=O)(=O)N2CCCN(C(=O)CNC(=O)OC(C)(C)C)CC2C(=O)NO)cc1 (stereo not drawn) | 7 | 446 | 71 | – | 4580 | inhibition in vivo at 25 mg/kg (Mus musculus [14]): 68% |
